Key:
[1] = molecular target: T1, His-TEV-DYRK1A Kinase domain (aa127-485) (Homo sapiens, UniProt Q13627); assay: Kinase ADP assay (ADP Hunter), DYRK1A kinase domain; assay type: biochemical; details: 20 μM ATP
T1 construct: His-TEV-DYRK1A Kinase domain (aa127-485); His tag (N); TEV protease cleavage site (N)
Protocol: The enzyme reaction was conducted in assay buffer (pH 7.4), containing 15 mM Hepes; 20 mM NaCl; 1 mM EGTA; 10 mM MgCl2; 0.02% Tween20 and 0.1 mg/ml Bovine-y-globulin. Test compounds of the invention were added in reaction buffer in a range of concentrations for 10 minutes at 30° C. in the presence of 20 nM DYRK1A enzyme, 40 μM peptide substrate and 20 μM ATP. Detection reagents (DiscoveRx 90-0083), ADP Hunter Plus Reagent A and then ADP Hunter Plus Reagent B were added. After a following 20 minutes incubation at 30° C., ADP Hunter Plus Stop Solution was added. The fluorescence intensity was measured at 590 nm.

DYRK1A [2] = molecular target: T2, DYRK1A (Homo sapiens, UniProt Q13627); assay: Kinase TR-FRET assay, DYRK1A; assay type: biochemical; parameters: full-length, wild-type human DYRK1A (NM_001396) with an HA tag; expressed in transfected cells; host or cells: human U2-OS osteosarcoma cells, transient transfection of a pcDNA3.1 plasmid; details: full-length human kinase, 10 μM ATP
Protocol: Inhibition of the enzymatic activity of human kinases was evaluated in a Time-Resolved Fluorescence Resonance Energy Transfer (TR-FRET) assay in 384-well reaction plates. […] Test compounds of the invention were added in reaction buffer at a range of concentrations from 0.1 nM to 30 μM. Following addition of EDTA (Sigma E7889, 10 mM) to stop the reaction, Europium-labelled mouse monoclonal antibody recognizing phospho-Thr232 in MBP (Perkin Elmer TRF0201, 1 nM) was added.

DYRK1A [3] = molecular target: T2, DYRK1A; assay: Cellular DYRK1 autophosphorylation assay in U2-OS cells; assay type: cell-based; parameters: full-length, wild-type human DYRK1A (NM_001396) with an HA tag; expressed in transfected cells; host or cells: human U2-OS osteosarcoma cells, transient transfection of a pcDNA3.1 plasmid; details: U2-OS cells transfected with HA-tagged human DYRK1A, 5 hours exposure; read-out: IC50 (μM) P-Ser520-Dyrk1A -Cell assay
Protocol: On day 2, cells were exposed to a range of concentrations of the test compounds of the invention for 5 hours. […] The relative levels of phospho-Ser520-DYRK1A were assayed using either western blotting or the Mesoscale ELISA platform. For analysis by western blot, lysates were diluted into Laemmli sample buffer (Bio-Rad) containing 5% v/v β-mercaptoethanol, heated for 5 min at 95° C., and resolved on Tris-glycine gels or NuPage Bis-Tris gels (Novex; Invitrogen). Biotinylated molecular weight standards (Cell Signaling Technology) were included in all gels. Proteins were transferred to nitrocellulose membranes (Hybond, ECL; Amersham), which were blocked in Tris-buffered saline/0.1% tween 20 (TBST) containing 5% milk, and probed at 4° C. overnight with anti-phospho-Ser520-DYRK1A antibody (Eurogentec SE6974-75; 0.23 μg/ml in 5% BSA) or anti DYRK1A antibody (Abnova H00001859; 0.5 μg/ml in 5% milk). Peroxidase-conjugated secondary antibodies were diluted into 5% milk and applied to membranes for 1 h at 20° C. Chemiluminescence detection was performed using the ECL plus western blotting detection kit (Amersham) and was recorded on ECL plus hyperfilm (Amersham). Blots were scanned using the Bio-Rad GS-800 calibrated densitometer and quantitative analysis of western blots was performed using TotalLab software (Amersham). IC50 values for inhibition of phospho-Ser520-DYRK1A were calculated from dose-response curves plotting the ratio between phospho-Ser520-DYRK1A and total DYRK1A signals at each concentration. […] Anti-phospho-Ser520-DYRK1A antibody (Eurogentec SE6974-75; […]) and anti DYRK1A antibody (Abnova H00001859; 3 μg/ml) was then added for 1 hour at RT, followed by addition of Sulfa-TAG anti-rabbit detection antibody (ref MSD R32AB; 1 μg/ml) and Sulfa-TAG anti-mouse detection antibody (ref MSD R32-AC-1; 1 μg/ml). After a further 1 hour, Read Buffer was added and plates were read on the Sector Imager 2400 (Mesoscale). IC50 values for inhibition of phospho-Ser520-DYRK1A were calculated from dose-response curves.

| IC50 [1] [µM] | IC50 (DYRK1A [2]) [µM] | IC50 (DYRK1A [3]) [µM] | Compound |
| --- | --- | --- | --- |
| 0.013 | – | 0.037 | Cc1nc2ccc(-c3cc(N)nc(N)c3)nc2n1CCCOc1ccccc1 [Example 143, 4-[2-methyl-3-(3-phenoxypropyl)-3H-imidazo[4,5-b]pyridin-5-yl]pyridine-2,6-diamine] |
| 0.032 | – | 0.152 | Cc1nc2ccc(-c3cc(N)nc(N)c3)nc2n1CCOc1ccc(Cl)cn1 [Example 164, 4-(3-{2-[(5-chloropyridin-2-yl)oxy]ethyl}-2-methyl-3H-imidazo[4,5-b]pyridin-5-yl)pyridine-2,6-diamine] |
| 0.085 | – | 0.25 | Cc1nc2ccc(-c3cc(N)nc(N)c3)nc2n1CCOc1ncccc1Cl [Example 166, 4-(3-{2-[(3-chloropyridin-2-yl)oxy]ethyl}-2-methyl-3H-imidazo[4,5-b]pyridin-5-yl)pyridine-2,6-diamine] |
| 0.011 | – | 0.011 | Cc1nc2ccc(-c3cc(N)nc(N)c3)nc2n1CCOc1cccc(F)n1 [Example 167, 4-(3-{2-[(6-fluoropyridin-2-yl)oxy]ethyl}-2-methyl-3H-imidazo[4,5-b]pyridin-5-yl)pyridine-2,6-diamine] |
| 0.035 | – | 0.131 | Cc1nc2ccc(-c3cc(N)nc(N)c3)nc2n1CCOc1ccc(Br)cn1 [Example 170, 4-(3-{2-[(5-bromopyridin-2-yl)oxy]ethyl}-2-methyl-3H-imidazo[4,5-b]pyridin-5-yl)pyridine-2,6-diamine] |
| 0.018 | – | 0.109 | Cc1nc2ccc(-c3cc(N)nc(N)c3)nc2n1CCOc1ccc(F)cn1 [Example 171, 4-(3-{2-[(5-fluoropyridin-2-yl)oxy]ethyl}-2-methyl-3H-imidazo[4,5-b]pyridin-5-yl)pyridine-2,6-diamine] |
| 0.007 | – | 0.092 | Cc1nc2ccc(-c3cc(N)nc(N)c3)nc2n1CCOc1cccc(CF)n1 [Example 172, 4-[3-(2-{[6-(fluoromethyl)pyridin-2-yl]oxy}ethyl)-2-methyl-3H-imidazo[4,5-b]pyridin-5-yl]pyridine-2,6-diamine] |
| 0.007 | – | 0.017 | Cc1nc2ccc(-c3cc(N)nc(N)c3)nc2n1CCOc1cccc(C(F)F)n1 [Example 173, 4-[3-(2-{[6-(difluoromethyl)pyridin-2-yl]oxy}ethyl)-2-methyl-3H-imidazo[4,5-b]pyridin-5-yl]pyridine-2,6-diamine] |
| 0.007 | – | 0.02 | Cc1nc2ccc(-c3cc(N)nc(N)c3)nc2n1CCOc1cccc(C(F)(F)F)n1 [Example 194, 4-[2-methyl-3-(2-{[6-(trifluoromethyl)pyridin-2-yl]oxy}ethyl)-3H-imidazo[4,5-b]pyridin-5-yl]pyridine-2,6-diamine] |
| 0.013 | – | 0.106 | Cc1cccc(OCCn2c(C)nc3ccc(-c4cc(N)nc(N)c4)nc32)n1 [Example 195, 4-(2-methyl-3-{2-[(6-methylpyridin-2-yl)oxy]ethyl}-3H-imidazo[4,5-b]pyridin-5-yl)pyridine-2,6-diamine] |
| 0.012 | – | 0.141 | Cc1nc2ccc(-c3cc(N)nc(N)c3)nc2n1CCOc1cccc(N)n1 [Example 196, 4-(3-{2-[(6-aminopyridin-2-yl)oxy]ethyl}-2-methyl-3H-imidazo[4,5-b]pyridin-5-yl)pyridine-2,6-diamine] |
| 0.007 | – | 0.054 | Cc1nc2ccc(-c3cc(N)nc(N)c3)nc2n1CCOc1cccc(C#N)n1 [Example 197, 6-{2-[5-(2,6-diaminopyridin-4-yl)-2-methyl-3H-imidazo[4,5-b]pyridin-3-yl]ethoxy}pyridine-2-carbonitrile] |
| 0.016 | – | 0.155 | Cc1ccc(OCCn2c(C)nc3ccc(-c4cc(N)nc(N)c4)nc32)cc1 [Example 208, 4-{2-methyl-3-[2-(4-methylphenoxy)ethyl]-3H-imidazo[4,5-b]pyridin-5-yl}pyridine-2,6-diamine] |
| 0.016 | – | 0.153 | Cc1nc2ccc(-c3cc(N)nc(F)c3)nc2n1C1CC(F)(F)C1 [Example 240, 4-[3-(3,3-difluorocyclobutyl)-2-methyl-3H-imidazo[4,5-b]pyridin-5-yl]-6-fluoropyridin-2-amine] |

The next lines start with the molecule.

| Compound | IC50 [1] [µM] | IC50 (DYRK1A [2]) [µM] | IC50 (DYRK1A [3]) [µM] |
| --- | --- | --- | --- |
| Cc1nc2ccc(-c3cc(N)nc(N)c3)nc2n1Cc1ccccc1 [Example 8, 4-(3-benzyl-2-methyl-3H-imidazo[4,5-b]pyridin-5-yl)pyridine-2,6-diamine] | 0.128 | 0.061 | – |
| Cc1nc2ccc(-c3cc(N)nc(N)c3)nc2n1[C@H]1C[C@H]2C[C@@H]([C@@H]1C)C2(C)C [Example 16, 4-[2-methyl-3-[(1S,2S,3S,5R)-2,6,6-trimethylbicyclo[3.1.1]hept-3-yl]-3H-imidazo[4,5-b]pyridin-5-yl]pyridine-2,6-diamine] | 0.367 | 0.153 | – |
| Cc1nc2ccc(-c3cc(N)nc(N)c3)nc2n1CC12CC3CC(CC(C3)C1)C2 [Example 22, 4-{2-methyl-3-tricyclo[3.3.1.1^3,7]dec-1-ylmethyl-3H-imidazo[4,5-b]pyridin-5-yl}pyridine-2,6-diamine] | 0.364 | 0.069 | – |
| Cc1nc2ccc(-c3cc(N)nc(N)c3)nc2n1CCC1CCCO1 (stereo not drawn) [Example 85, 4-{2-methyl-3-[2-(tetrahydrofuran-2-yl)ethyl]-3H-imidazo[4,5-b]pyridin-5-yl}pyridine-2,6-diamine] | 0.016 | – | 0.143 |
| Cc1nc2ccc(-c3cc(N)nc(N)c3)nc2n1CC1CC1C (stereo not drawn) [Example 86, 4-{2-methyl-3-[(2-methylcyclopropyl)methyl]-3H-imidazo[4,5-b]pyridin-5-yl}pyridine-2,6-diamine] | 0.019 | – | 0.151 |
| CCC1(Cn2c(C)nc3ccc(-c4cc(N)nc(N)c4)nc32)CC1 [Example 88, 4-{3-[(1-ethylcyclopropyl)methyl]-2-methyl-3H-imidazo[4,5-b]pyridin-5-yl}pyridine-2,6-diamine] | 0.012 | – | 0.103 |
| COc1cccc2c1CCC(n1c(C)nc3ccc(-c4cc(N)nc(N)c4)nc31)C2 (stereo not drawn) [Example 93, 4-[3-(5-methoxy-1,2,3,4-tetrahydronaphthalen-2-yl)-2-methyl-3H-imidazo[4,5-b]pyridin-5-yl]pyridine-2,6-diamine] | 0.007 | – | 0.107 |
| Cc1nc2ccc(-c3cc(N)nc(N)c3)nc2n1CC1CC1(C)C (stereo not drawn) [Example 99, 4-{3-[(2,2-dimethylcyclopropyl)methyl]-2-methyl-3H-imidazo[4,5-b]pyridin-5-yl}pyridine-2,6-diamine] | 0.016 | – | 0.104 |
| Cc1nc2ccc(-c3cc(N)nc(N)c3)nc2n1CC(C)(C)Oc1ccccc1 [Example 116, 4-[2-methyl-3-(2-methyl-2-phenoxypropyl)-3H-imidazo[4,5-b]pyridin-5-yl]pyridine-2,6-diamine] | 0.056 | – | 0.267 |
| Cc1cccc(O[C@@H](C)Cn2c(C)nc3ccc(-c4cc(N)nc(N)c4)nc32)c1 [Example 127, 4-{2-methyl-3-[(2S)-2-(3-methylphenoxy)propyl]0.3H-imidazo[4,5-b]pyridin-5-yl}pyridine-2,6-diamine] | 0.015 | – | 0.089 |

— patent US20180273528A1 (LES LABORATOIRES SERVIER, priority 2015, published 2018)
